Test results: publication PMC6225212, “Synthesis and Pharmacological Evaluation of Novel Silodosin-Based Arylsulfonamide Derivatives as α1A/α1D-Adrenergic Receptor Antagonist with Potential Uroselective Profile” (Molecules : A Journal of Synthetic Chemistry and Natural …, 2018)
Read-outs that look alike come from different tables or passages of the source.

Legend:
[1] = target: T1, α1B-ARs (Homo sapiens, UniProt P35368); assay: Intrinsic activity at α1B-ARs, aequorin calcium mobilization luminescence; format: cell-based; design: key to α1B Profile: ANT—antagonist; AGO—agonist; conditions: for IC50: antagonist mode, three independent experiments; for α1B Profile: functional profile
T1 sequence (P35368 1-520): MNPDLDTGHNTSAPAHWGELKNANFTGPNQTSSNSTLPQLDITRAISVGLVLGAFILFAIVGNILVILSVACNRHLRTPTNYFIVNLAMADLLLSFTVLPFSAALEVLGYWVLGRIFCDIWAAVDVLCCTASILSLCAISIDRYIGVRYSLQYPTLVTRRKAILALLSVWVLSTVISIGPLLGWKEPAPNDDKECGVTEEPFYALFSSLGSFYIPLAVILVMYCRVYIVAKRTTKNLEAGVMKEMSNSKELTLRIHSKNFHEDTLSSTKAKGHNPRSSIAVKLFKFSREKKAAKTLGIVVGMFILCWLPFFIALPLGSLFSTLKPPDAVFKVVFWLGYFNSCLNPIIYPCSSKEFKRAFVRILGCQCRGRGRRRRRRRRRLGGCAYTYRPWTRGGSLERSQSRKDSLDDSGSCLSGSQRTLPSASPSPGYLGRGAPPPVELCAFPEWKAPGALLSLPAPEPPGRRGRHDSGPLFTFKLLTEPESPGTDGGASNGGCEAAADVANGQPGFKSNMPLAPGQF
Procedure: (§1) The intrinsic activity at α1A-ARs of the selected compounds was assessed by fluorescence detection (Invitrogen, Thermo Fisher Scientific, Carlsbad, CA, USA) of β-lactamase reporter genes using a FRET-enabled substrate. The intrinsic activity at α1B-ARs and α1D-ARs was determined by luminescence detection (PerkinElmer, Zaventem, Belgium) of calcium mobilization using the recombinant-expressed jellyfish photoprotein (Aequorin).
(§2) Intrinsic activity assay to α1B- and α1D-ARs was performed according to the manufacturer of the ready-to-use cells with stable expression of the α1B-adrenoreceptors and α1D-adrenoreceptors, respectively (PerkinElmer, Zaventem, Belgium). For measurement, cells (frozen, ready to use) were thawed and resuspended in 10 mL of assay buffer containing 5 µM coelenterazine h. This cells suspension was put in a 10 mL Falcon tube, fixed onto a rotating heel, and incubated for overnight at rt in the dark (8 rpm; 45° angle). Cells were diluted with Assay Buffer to 5000 cells/20 µL. Agonistic ligands 2 × (50 µL/well), diluted in Assay Buffer, were prepared in ½ white polystyrene area plates, and the cell suspension was dispensed in 50 µL volume on the ligands using the injector. The light emitted was recorded for 20 s. Cells with antagonist were incubated for 15 min at room temperature. Thereafter, 50 µL of agonist (3 × EC80 final concentration) was injected into the mix of cells and antagonist and the light emitted was recorded for 20 s.

[2] = target: α2-ARs; assay: Radioligand binding, displacement of [3H]-Clonidine from α2-ARs on rat cerebral cortex; conditions: ± SEM, two independent experiments
Procedure: (§3) The pharmacological profile of the new compounds was assessed in radioligand-binding assays as the ability to displace [^3H]-Prazosin or [^3H]-Clonidine from α1- and α2-ARs, respectively, on rat cerebral cortex. The inhibition constants (Ki) were calculated from the Cheng-Prusoff equation [24].
(§4) The affinity of the obtained compounds was evaluated by radioligand-binding assays (the ability to displace [^3H]-Prazosin and [^3H]-Clonidine from α1- and α2-ARs, respectively) on rat cerebral cortex. The brains are homogenized in 20 volumes of an ice-cold 50 mM Tris-HCl buffer (pH 7.6) and is centrifuged (MPW Med. Instruments, Warsaw, Poland) at 20,000 g for 20 min (0–4 °C). The cell pellet is resuspended in the Tris-HCl buffer and centrifuged again. Radioligand-binding assays are performed in plates (MultiScreen/Millipore, Burlington, MA, USA). The final incubation mixture (final volume 300 µL) consisted of 240 µL of the membrane suspension, 30 µL of [^3H]-Prazosin (0.2 nM) or [^3H]-Clonidine (2 nM) solution, and 30 µL of the buffer containing seven to eight concentrations (10^−11 to 10^−4 M) of the tested compounds. For measuring the unspecific binding, phentolamine, 10 µM (in the case of [^3H]-Prazosin) and clonidine, and 10 µM (in the case of [^3H]-Clonidine), were applied. The incubation was terminated by rapid filtration over glass fiber filters (Whatman GF/C, Sigma-Aldrich) using a vacuum manifold (Millipore). The filters were then washed twice with the assay buffer and placed in scintillation vials with a liquid-scintillation cocktail. Radioactivity was measured in a WALLAC 1409 DSA liquid-scintillation counter (BioSurplus, San Diego, CA, USA). All the assays were made in duplicate.

[3] = system: α1-ARs; assay: Radioligand binding, displacement of [3H]-Prazosin from α1-ARs on rat cerebral cortex; conditions: for Sα2/α1 (ratio of affinity for α2- and α1-ARs): Ki α2 / Ki α1; for Ki: [3H]-Prazosin, rat cerebral cortex, ± SEM, two independent experiments
Procedure: as §3, §4

[4] = target: T2, α1A-ARs (Homo sapiens, UniProt P35348); assay: Intrinsic activity at α1A-ARs, β-lactamase reporter gene, FRET substrate; format: cell-based; design: key to α1A Profile: ANT—antagonist; AGO—agonist; conditions: for IC50: antagonist mode, three independent experiments; for α1A Profile: functional profile
T2 sequence (P35348 1-466): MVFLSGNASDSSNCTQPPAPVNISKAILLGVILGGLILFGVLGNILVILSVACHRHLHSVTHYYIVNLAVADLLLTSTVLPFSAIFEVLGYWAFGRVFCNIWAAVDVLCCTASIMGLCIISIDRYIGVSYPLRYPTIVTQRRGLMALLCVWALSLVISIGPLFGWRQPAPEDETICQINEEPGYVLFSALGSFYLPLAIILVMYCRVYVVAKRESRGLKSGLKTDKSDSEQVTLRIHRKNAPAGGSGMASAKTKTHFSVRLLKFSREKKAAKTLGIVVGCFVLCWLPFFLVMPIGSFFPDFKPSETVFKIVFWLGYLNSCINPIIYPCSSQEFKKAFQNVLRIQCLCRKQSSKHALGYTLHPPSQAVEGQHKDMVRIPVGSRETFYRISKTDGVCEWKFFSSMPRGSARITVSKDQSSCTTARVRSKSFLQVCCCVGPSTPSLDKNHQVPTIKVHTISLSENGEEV
Procedure: The intrinsic activity at α1A-ARs of the selected compounds was assessed by fluorescence detection (Invitrogen, Thermo Fisher Scientific, Carlsbad, CA, USA) of β-lactamase reporter genes using a FRET-enabled substrate. […] Intrinsic activity assay was performed according to the manufacturer of the assay kit (Invitrogen, Thermo Fisher Scientific corporation, Carlsbad, CA, USA). The cells were harvested and suspended in Assay Medium to a density of 312,500 cells/mL. Of the cell suspension, 32 µL per well was added to the Test Compound wells, the Unstimulated Control wells, and Stimulated Control wells and incubated per 16–24 h. […] Then, both the agonist and the antagonist plate were incubated in a humidified 37 °C/5% CO2 incubator for 5 h. After the incubation 8 µL of LiveBLAzer™-FRET B/G Substrate Mixture (CCF4-AM, Thermo Fisher Scientific corporation) was loaded cells in the absence of direct strong lighting, covered, and incubated at room temperature for 2 h.

[5] = target: T3, α1D-ARs (Homo sapiens, UniProt P25100); assay: Intrinsic activity at α1D-ARs, aequorin calcium mobilization luminescence; format: cell-based; design: key to α1D Profile: ANT—antagonist; AGO—agonist; conditions: for IC50: antagonist mode; for α1D Profile: functional profile
T3 sequence (P25100 1-572): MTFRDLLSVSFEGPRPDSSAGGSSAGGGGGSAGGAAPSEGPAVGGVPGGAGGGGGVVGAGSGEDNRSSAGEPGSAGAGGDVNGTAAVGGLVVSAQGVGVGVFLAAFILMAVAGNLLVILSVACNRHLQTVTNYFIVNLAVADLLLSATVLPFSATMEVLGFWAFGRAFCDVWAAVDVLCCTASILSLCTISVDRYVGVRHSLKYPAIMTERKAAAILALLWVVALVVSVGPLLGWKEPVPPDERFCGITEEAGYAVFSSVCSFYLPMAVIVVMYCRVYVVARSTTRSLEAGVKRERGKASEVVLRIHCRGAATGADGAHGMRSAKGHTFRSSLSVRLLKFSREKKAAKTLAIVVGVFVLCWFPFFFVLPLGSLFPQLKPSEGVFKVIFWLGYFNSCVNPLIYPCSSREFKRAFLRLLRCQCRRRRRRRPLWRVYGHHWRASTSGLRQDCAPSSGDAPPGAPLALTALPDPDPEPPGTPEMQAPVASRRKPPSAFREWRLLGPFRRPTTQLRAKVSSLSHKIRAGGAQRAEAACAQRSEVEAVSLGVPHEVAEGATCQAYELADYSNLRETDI
Procedure: as §1, §2

[6] = target: α2-ARs; design: method as in PMID 27658792; conditions: [3H]-Clonidine, rat cerebral cortex; ± SEM; cited from earlier work
[7] = system: α1-ARs; design: method as in PMID 27658792; conditions: cited from earlier work
[8] = antagonist, as worded in abstract and text, read-out: EC50(α1D)

Row | α1B Profile [1] | Ki [2] | Sα2/α1 (ratio of affinity for α2- and α1-ARs) [3] | Ki [3] | α1A Profile [4] | α1D Profile [5] | Structure (SMILES) | other results
1 | ANT | 919 ± 25 nM | 46 | 20 ± 2 nM | ANT | ANT | O=S(=O)(NCC1CCN(CCOc2ccccc2OCC(F)(F)F)CC1)c1ccc(F)cc1 [Compound 8, 4-Fluoro-N-[(1-{2-[(2,2,2-trifluoroethoxy)phenoxy]ethyl}piperidin-4-yl)methyl]benzenesulfonamide] | IC50 [1]: 8.3 nM; IC50 [4]: 3.8 nM; IC50 ([5]; three independent experiments): 1.1 nM; EC50 [5, 8]: 1.1 to 2.7 nM
2 |  | 1090 ± 62 nM | 12 | 95 ± 3 nM |  |  | COc1ccc(Cl)cc1S(=O)(=O)NCC1CCN(CCOc2ccccc2OCC(F)(F)F)CC1 [Compound 11, 5-Chloro-2-methoxy-N-[(1-{2-[(2,2,2-trifluoroethoxy)phenoxy]ethyl}piperidin-4-yl)methyl]benzenesulfonamide] | 
3 | ANT | 524 ± 31 nM | 27 | 19 ± 3 nM | ANT | ANT | COc1ccc(S(=O)(=O)NCC2CCN(CCOc3ccccc3OCC(F)(F)F)CC2)cc1OC [Compound 12, 3,4-Dimethoxy-N-[(1-{2-[(2,2,2-trifluoroethoxy)phenoxy]ethyl}piperidin-4-yl)methyl]benzenesulfonamide] | IC50 [1]: 0.02 nM; IC50 [4]: 15 nM; IC50 ([5]; three independent experiments): 2.6 nM; EC50 [5, 8]: 1.1 to 2.7 nM
4 |  | 1690 ± 85 nM | 9 | 188 ± 3 nM |  |  | O=S(=O)(N[C@@H]1CCN(CCOc2ccccc2OCC(F)(F)F)C1)c1ccc(F)cc1 [Compound 13, (R)-4-Fluoro-N-(1-{2-[(2,2,2-trifluoroethoxy)phenoxy]ethyl}pyrrolidin-3-yl)benzenesulfonamide] | 
5 |  | > 10000 nM | >70 | 134 ± 16 nM |  |  | O=S(=O)(N[C@H]1CCN(CCOc2ccccc2OCC(F)(F)F)C1)c1ccc(F)cc1 [Compound 14, (S)-4-Fluoro-N-(1-{2-[(2,2,2-trifluoroethoxy)phenoxy]ethyl}pyrrolidin-3-yl)benzenesulfonamide] | 
6 |  | 1190 ± 74 nM | 7 | 171 ± 4 nM |  |  | O=S(=O)(N[C@@H]1CCN(CCOc2ccccc2OCC(F)(F)F)C1)c1cc(Cl)ccc1F [Compound 15, (R)-5-Chloro-2-fluoro-N-(1-{2-[(2,2,2-trifluoroethoxy)phenoxy]ethyl}pyrrolidin-3-yl)benzenesulfonamide] | 
7 |  | 1470 ± 80 nM | 13 | 117 ± 10 nM |  |  | O=S(=O)(N[C@H]1CCN(CCOc2ccccc2OCC(F)(F)F)C1)c1cc(Cl)ccc1F [Compound 16, (S)-5-Chloro-2-fluoro-N-(1-{2-[(2,2,2-trifluoroethoxy)phenoxy]ethyl}pyrrolidin-3-yl)benzenesulfonamide] | 
8 |  | 435 ± 21 nM | 4 | 105 ± 7 nM |  |  | COc1ccc(S(=O)(=O)N[C@@H]2CCN(CCOc3ccccc3OCC(F)(F)F)C2)cc1OC [Compound 17, (R)-3,4-Dimethoxy-N-(1-{2-[(2,2,2-trifluoroethoxy)phenoxy]ethyl}pyrrolidin-3-yl)benzenesulfonamide] | 
9 |  | 1140 ± 42 nM | 16 | 70 ± 1 nM |  |  | COc1ccc(S(=O)(=O)N[C@H]2CCN(CCOc3ccccc3OCC(F)(F)F)C2)cc1OC [Compound 18, (S)-3,4-Dimethoxy-N-(1-{2-[(2,2,2-trifluoroethoxy)phenoxy]ethyl}pyrrolidin-3-yl)benzenesulfonamide] | 
10 |  |  |  |  |  |  | CC(C)Oc1ccccc1OCCN1CC[C@H](NS(=O)(=O)c2cc(Cl)ccc2F)C1 [II] | Ki [6]: > 10000 nM; Sα2/α1 (ratio of affinity for α2- and α1-ARs) ([7]; Ki α2 / Ki α1): >41; Ki ([7]; [3H]-Prazosin, rat cerebral cortex, ± SEM): 242 ± 16 nM
11 | AGO |  |  |  | AGO ^b | AGO | CNC[C@H](O)c1cccc(O)c1 [phenylephrine, reference compound] | EC50 ([5]; agonist mode, three independent experiments, read-out: α1D EC50): 12.1 nM
12 | ANT |  |  |  | ANT | ANT | COc1cc2nc(N3CCN(C(=O)C4CCCO4)CC3)nc(N)c2cc1OC (stereo not shown) [terazosin, reference compound] | IC50 ([5]; three independent experiments): 0.2 nM
